Experimental data reported in US5686454A, “Camphorcarbonyl” (Merck & Co., Inc., priority 1996, dated 1997).

The compounds below were run against T1, uterine OT receptors (Rattus norvegicus, UniProt P70536) (assay: Radioligand binding: competition of [^3 H]oxytocin binding to rat uterine membranes). Details: 1 nM [^3 H]OT, rat uterus membranes, 60 minutes, 22° C., pH 7.4; read-out: IC50.
T1 construct: crude membrane preparation of uteri; from tissue; host or cells: uterus of DES-treated rats, crude membranes
T1 sequence (P70536 1-388): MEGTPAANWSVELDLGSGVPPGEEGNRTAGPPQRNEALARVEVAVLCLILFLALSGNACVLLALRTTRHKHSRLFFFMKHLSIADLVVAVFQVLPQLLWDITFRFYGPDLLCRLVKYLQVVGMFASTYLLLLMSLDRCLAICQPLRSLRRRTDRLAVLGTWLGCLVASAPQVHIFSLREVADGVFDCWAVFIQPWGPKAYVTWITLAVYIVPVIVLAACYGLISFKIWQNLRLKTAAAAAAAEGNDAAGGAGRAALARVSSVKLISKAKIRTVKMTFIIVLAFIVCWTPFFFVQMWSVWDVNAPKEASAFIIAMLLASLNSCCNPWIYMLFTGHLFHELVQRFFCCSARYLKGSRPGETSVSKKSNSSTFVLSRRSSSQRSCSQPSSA
From the text: RADIOGLIGAND BINDING ASSAYS
The high affinity binding of [^3 H]

SMILES | IC50
Cc1ccccc1N1CCN(S(=O)(=O)C[C@]23CC[C@H](C[C@]2(O)C(C)CN)C3(C)C)CC1 (some centres unmarked) [Example 39] | 180 nM
Cc1ccccc1N1CCN(S(=O)(=O)C[C@]23CC[C@H](C[C@]2(O)C(C)CNC(=O)[C@@H]2CCCN2CCCC(=O)O)C3(C)C)CC1 (stereo partly drawn) [Example 42, 1-((7,7-Dimethyl-2-exo-hydroxy-2-endo-2-(1-(1-N-(3-carboxypropyl)prolyl)amino)propyl-bicyclo(2.2.1)heptan-1-yl)methanesulfonyl)-4-(2-methylphenyl) piperazine] | 10 nM
Cc1ccccc1N1CCN(C(=O)C2C3CCC(C)(C2NC(=O)C(C)(C)O)C3(C)C)CC1 (centres unmarked) [Example 17] | 16 nM
Cc1ccccc1N1CCN(C(=O)C2C3CCC(C)(C2NC(=O)C(CCS(C)(=O)=O)NC(=O)OC(C)(C)C)C3(C)C)CC1 (stereo not drawn) [Example 11, 1-(2-methylphenyl)-4-[(4,7,7-trimethyl-3-endo-(4-methylsulfonyl-2-t-butoxycarbonylamino)butanoylaminobicyclo[2.2.1]hept-2-endo-yl)carbonyl]-piperazine] | 1100 nM
Cc1ccccc1N1CCN(S(=O)(=O)CC23CCC(CC2(O)C(C)CNC(=O)[C@@H]2CCCN2CCC(=O)O)C3(C)C)CC1 (stereo partly drawn) [Example 82, 1-((7,7-Dimethyl-2-exo-hydroxy-2-endo-2-(1-(1-N-(carboxyethyl)prolyl)amino)propyl-bicyclo(2.2.1)-heptan-1-yl)methanesulfonyl)-4-(2-methylphenyl)piperazine] | 15 nM

More lines, now with the values ahead:

IC50 | SMILES
30 nM | Cc1ccccc1N1CCN(S(=O)(=O)CC23CCC(CC2(O)C(C)CNC(=O)C2CCCNC2)C3(C)C)CC1 (stereo not drawn) [Example 83, 1-((7,7-Dimethyl-2-exo-hydroxy-2-endo-2-(1-(3-piperidinylcarbonyl)amino)propyl-bicyclo(2.2.1)heptan-1-yl)methanesulfonyl)-4-(2-methylphenyl)piperazine]
120 nM | Cc1ccccc1N1CCN(S(=O)(=O)CC23CCC(C=C2C(=O)NCCc2c[nH]cn2)C3(C)C)CC1 (centres unmarked) [Example 58, 1-((7,7-Dimethyl-2-(4-imidazolyl)ethylaminocarbonyl-bicyclo(2.2.1)hept-2-en-1-yl)methanesulfonyl)-4-(2-methylphenyl)piperazine]
150 nM | Cc1ccccc1N1CCN(C(=O)C2(C)C(=O)C3(C)CCC2C3(C)C)CC1 (centres unmarked) [Example 3, 1-(2-methylphenyl)-4-[(2,4,7,7-tetramethyl-3-oxobicyclo[2.2.1]hept-2-yl)carbonyl]-piperazine]
34 nM | Cc1ccccc1N1CCN(S(=O)(=O)C[C@]23CC[C@H](C[C@]2(O)C(C)CNC(=O)[C@@H]2CCCN2)C3(C)C)CC1 (stereo partly drawn) [Example 40, 1-((7,7-Dimethyl-2-exo-hydroxy-2-endo-2-(1-(1-prolyl)-amino)propylbicyclo(2.2.1)heptan-1-yl)methanesulfonyl)-4-(2-methylphenyl)piperazine]
60 nM | Cc1ccccc1N1CCN(C(=O)C2C3CCC(C)(C2NC(=O)[C@@H]2CCCN2)C3(C)C)CC1 (some centres unmarked) [Example 15, 1-(2-methylphenyl)-4-[(4,7,7-trimethyl-3-prolylaminobicyclo[2.2.1]hept-2-yl)carbonyl]-piperazine]
54 nM | COC(=O)CCN1CCC(C(=O)NCC(C)C2(O)CC3CCC2(CS(=O)(=O)N2CCN(c4ccccc4C)CC2)C3(C)C)CC1 (stereo not drawn) [Example 91, 1-((7,7-Dimethyl-2-exo-hydroxy-2-endo-2-(1-(4-(1-methoxycarbonylethyl)-piperidinylcarbonyl)-amino)propylbicyclo(2.2.1)heptan-1-yl)methane-sulfonyl)-4-(2-methylphenyl)piperazine]
15.3 nM | Cc1ccccc1N1CCN(C(=O)C2C3CCC(C)(C2NC(=O)C(N)CCS(C)(=O)=O)C3(C)C)CC1 (stereo not drawn) [Example 12, 1-(2-methylphenyl)-4-[(4,7,7-trimethyl-3-endo-(4-methylsulfonyl-2-amino)butanoylaminobicyclo[2.2.1]hept-2-endo-yl)carbonyl]-piperazine]
1100 nM | Cc1ccccc1N1CCN(S(=O)(=O)C[C@]23CC[C@H](CC2=CCCl)C3(C)C)CC1 [Example 49, 1-((7,7-dimethyl-2-(2-chloro)ethylidinebicyclo-(2.2.1)heptan-1-yl)methanesulfonyl)-4-(2-methyl-phenyl)piperazine]
20 nM | COC(=O)CCN1CCC[C@H]1C(=O)NCC(C)C1(O)CC2CCC1(CS(=O)(=O)N1CCN(c3ccccc3C)CC1)C2(C)C (stereo partly drawn) [Example 81, 1-((7,7-Dimethyl-2-exo-hydroxy-2-endo-2-(1-(1--N -(methoxycarbonylethyl)prolyl)amino)propylbicyclo-(2.2.1)heptan-1-yl)methanesulfonyl)-4-(2-methyl-phenyl)piperazine]
27 nM | CCOC(=O)CCN1CCCC1C(=O)NC1C(C(=O)N2CCN(c3ccccc3C)CC2)C2CCC1(C)C2(C)C (centres unmarked) [Example 16]

Same assay, conditions: IC50, 1 nM [^3 H]OT, rat uterus membranes, 60 minutes, 22° C., pH 7.4

SMILES | IC50
Cc1ccccc1N1CCN(S(=O)(=O)C[C@]23CC[C@H](C[C@]2(O)C(C)CNC(=O)C2CN4CCC2CC4)C3(C)C)CC1 (stereo partly drawn) [Example 44, 1-((7,7-Dimethyl-2-exo-hydroxy-2-endo-2-(1-(quinuclidin-3-yl-carbonyl)amino)propyl-bicyclo(2.2.1)heptan-1-yl)methanesulfonyl)-4-(2-methylphenyl)piperazine] | 18 nM

Same assay, conditions: read-out: % inhibition at 100 nM

inhibition at 0.1 µM | SMILES
91% | Cc1ccccc1N1CCN(S(=O)(=O)CC23CCC(CC2N)C3(C)C)CC1 (stereo not drawn) [Example 70, 1-((7,7-Dimethyl-2-endo-amino-bicyclo(2.2.1)heptan-1-yl)methanesulfonyl)-4-(2-methylphenyl)-piperazine]
37% | COC(=O)C1CC(=O)N(CC(C)C2(O)CC3CCC2(CS(=O)(=O)N2CCN(c4ccccc4C)CC2)C3(C)C)C1 (stereo not drawn) [Example 62, 1-((7,7-dimethyl-2-exo-hydroxy-2-endo-2-(1-(3-methoxycarbonyl)-2-pyrrolidinon-1-yl)propylbicyclo-(2.2.1)heptan-1-yl)methanesulfonyl)-4-(2-methylphenyl)piperazine]
66% | Cc1ccccc1N1CCN(S(=O)(=O)CC23CCC(CC2(O)C(C)CNC(=O)C2CCN(CCC(=O)O)CC2)C3(C)C)CC1 (stereo not drawn) [Example 92, 1-((7,7-Dimethyl-2-exo-hydroxy-2-endo-2-(1-(4-(1-carboxyethyl)piperidinylcarbonyl)amino)propyl-bicyclo-(2.2.1)heptan-1-yl)methanesulfonyl)-4-(2-methylphenyl)piperazine]

Same assay, conditions: read-out: % inhibition at 110 nM

inhibition at […] | SMILES
66% | Cc1ccccc1N1CCN(S(=O)(=O)CC23CCC(CC2(O)C(C)CNC(=O)C2CCCN(CC(=O)O)C2)C3(C)C)CC1 (stereo not drawn) [Example 87, 1-((7,7-Dimethyl-2-exo-hydroxy-2-endo-2-(1-(3-(1-carboxymethyl)piperidinylcarbonyl)amino)-propylbicyclo(2.2.1)heptan-1-yl)methanesulfonyl)-4-(2-methylphenyl)piperazine]

Same assay, conditions: read-out: % inhibition at 1000 nM

SMILES | inhibition at 1 µM
Cc1ccccc1N1CCN(S(=O)(=O)C[C@]23CC[C@H](C[C@]2(O)CNCC(C)C)C3(C)C)CC1 [Example 55, 1-((7,7-Dimethyl-2-exo-hydroxy-2-endo-isobutylamino-methylbicyclo(2.2.1)heptan-1-yl)methanesulfonyl)-4-(2-methylphenyl)piperazine] | 72%
Cc1ccccc1N1CCN(S(=O)(=O)CC23CCC(CC2NC(=O)[C@H](CCS(C)(=O)=O)N(C)C)C3(C)C)CC1 (stereo partly drawn) [Example 74, 1-((7,7-Dimethyl-2-endo-(2S-(dimethylamino)-4-(methylsulfonyl)butyramido)-bicyclo(2.2.1)heptan-1-yl)methanesulfonyl)-4-(2-methylphenyl)piperazine] | 54%
Cc1ccccc1N1CCN(S(=O)(=O)C[C@]23CC[C@H](CC2=CCNCC(C)C)C3(C)C)CC1 [Example 50, 1-((7,7-dimethyl-2-(2-isobutylamino)ethylidine-bicyclo(2.2.1)heptan-1-yl)methanesulfonlyl)-4-(2-methylphenyl)piperazine] | 44%

Next, values leading:

inhibition at 1 µM | SMILES
75% | Cc1ccccc1N1CCN(S(=O)(=O)C[C@]23CC[C@H](CC2=CCNC(=O)Cc2c[nH]cn2)C3(C)C)CC1 [Example 53, 1-((7,7-dimethyl-2-(2-(4(5)-imidazolylacetyl)amino)-ethylidine-bicyclo(2.2.1)heptan-1-yl)methane-sulfonyl)-4-(2-methylphenyl)piperazine]
75% | Cc1ccccc1N1CCN(C(=O)C2C3CCC(C)(C2NC(=O)C(N)CCS(C)(=O)=O)C3(C)C)CC1 (stereo not drawn) [Example 10, 1-(2-methylphenyl)-4-[(4,7,7-trimethyl-3-exo-(4-methylsulfonyl-2-amino)butanoylaminobicyclo[2.2.1]hept-2-endo-yl)carbonyl]-piperazine]

Same assay, conditions: read-out: % inhibition at 10,000 nM

inhibition at 10 µM | SMILES
16% | CC(=O)NC(CC=C1CC2CCC1(CS(=O)(=O)N1CCN(c3ccccc3C)CC1)C2(C)C)C(=O)O (centres unmarked) [Example 65, 1-((7,7-Dimethyl-2-(3-acetamido-3-carboxy)propylidine-bicyclo(2.2.1)heptan-1-1 methanesulfonyl)-4-2-methylphenyl)piperazine]
